Reference: the supplement of paper PMC8612539
Converted amounts (≈) assume the structure as drawn.

System: Escherichia coli
Test: minimum inhibitory concentration (MIC)
Procedure: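 Broth microdilution MIC (Sensititre BOPO7F bovine plate, CLSI methods) of 19 antimicrobials against field isolates of P. multocida, M. haemolytica, H. somni (deep nasopharyngeal swabs) and E. coli, Enterococcus spp. (rectal swabs) from weaned dairy heifers. Incubation 16-24 h at 35 C. MIC is the lowest concentration preventing visible growth. Values with <= or > lie at the tested range limits. Trimethoprim-sulfamethoxazole is given as the trimethoprim component of a 1:19 mixture.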

NC[C@@H]1O[C@H](O[C@H]2[C@@H](O)[C@H](O[C@@H]3[C@@H](O)[C@H](N)C[C@H](N)[C@H]3O[C@H]3O[C@H](CN)[C@@H](O)[C@H](O)[C@H]3N)O[C@@H]2CO)[C@H](N)[C@@H](O)[C@@H]1O [Neomycin]
Details | minimum inhibitory concentration [µg/mL]
isolate (source animal id): 8 | 32 (≈ 52.1 µM)
isolate (source animal id): 9 | ≤ 4
isolate (source animal id): 10 | > 32
isolate (source animal id): 11 | ≤ 4
isolate (source animal id): 12 | ≤ 4
isolate (source animal id): 13 | ≤ 4
isolate (source animal id): 14 | 32 (≈ 52.1 µM)
isolate (source animal id): 15 | ≤ 4
isolate (source animal id): 16 | ≤ 4
isolate (source animal id): 98 | ≤ 4
isolate (source animal id): 99 | ≤ 4
isolate (source animal id): 100 | ≤ 4
isolate (source animal id): 101 | ≤ 4
isolate (source animal id): 102 | ≤ 4
isolate (source animal id): 103 | ≤ 4
isolate (source animal id): 104 | ≤ 4
isolate (source animal id): 105 | ≤ 4
isolate (source animal id): 106 | > 32
isolate (source animal id): 107 | ≤ 4
isolate (source animal id): 108 | ≤ 4
isolate (source animal id): 109 | ≤ 4
isolate (source animal id): 110 | ≤ 4
isolate (source animal id): 111 | > 32
isolate (source animal id): 112 | > 32
isolate (source animal id): 113 | ≤ 4
isolate (source animal id): 114 | ≤ 4
isolate (source animal id): 115 | > 32
isolate (source animal id): 116 | ≤ 4
isolate (source animal id): 117 | > 32
isolate (source animal id): 118 | ≤ 4
isolate (source animal id): 119 | ≤ 4
isolate (source animal id): 120 | > 32
isolate (source animal id): 121 | ≤ 4
isolate (source animal id): 122 | > 32
isolate (source animal id): 123 | ≤ 4
isolate (source animal id): 124 | ≤ 4
isolate (source animal id): 125 | ≤ 4
isolate (source animal id): 126 | ≤ 4
isolate (source animal id): 127 | ≤ 4
isolate (source animal id): 128 | ≤ 4
isolate (source animal id): 129 | ≤ 4
isolate (source animal id): 130 | ≤ 4
isolate (source animal id): 131 | ≤ 4
isolate (source animal id): 132 | > 32
isolate (source animal id): 133 | ≤ 4
isolate (source animal id): 134 | ≤ 4
isolate (source animal id): 135 | ≤ 4
isolate (source animal id): 136 | ≤ 4
isolate (source animal id): 137 | > 32
isolate (source animal id): 138 | ≤ 4
isolate (source animal id): 139 | ≤ 4
isolate (source animal id): 140 | ≤ 4
isolate (source animal id): 141 | > 32
isolate (source animal id): 142 | ≤ 4
isolate (source animal id): 143 | > 32
isolate (source animal id): 144 | ≤ 4
isolate (source animal id): 145 | > 32
isolate (source animal id): 146 | ≤ 4
isolate (source animal id): 147 | > 32
isolate (source animal id): 148 | ≤ 4
isolate (source animal id): 149 | ≤ 4
isolate (source animal id): 150 | > 32
isolate (source animal id): 151 | ≤ 4
isolate (source animal id): 152 | ≤ 4
isolate (source animal id): 153 | ≤ 4
isolate (source animal id): 154 | ≤ 4
isolate (source animal id): 155 | 32 (≈ 52.1 µM)
isolate (source animal id): 156 | > 32
isolate (source animal id): 157 | ≤ 4
isolate (source animal id): 158 | > 32
isolate (source animal id): 159 | ≤ 4
isolate (source animal id): 160 | > 32
isolate (source animal id): 161 | > 32
isolate (source animal id): 162 | ≤ 4
isolate (source animal id): 163 | ≤ 4
isolate (source animal id): 164 | ≤ 4
isolate (source animal id): 165 | 32 (≈ 52.1 µM)
isolate (source animal id): 166 | ≤ 4
isolate (source animal id): 167 | ≤ 4
isolate (source animal id): 168 | ≤ 4
isolate (source animal id): 169 | ≤ 4
isolate (source animal id): 170 | ≤ 4
isolate (source animal id): 171 | ≤ 4
isolate (source animal id): 172 | ≤ 4
isolate (source animal id): 173 | ≤ 4
isolate (source animal id): 174 | ≤ 4
isolate (source animal id): 175 | ≤ 4
isolate (source animal id): 176 | ≤ 4
isolate (source animal id): 177 | ≤ 4
isolate (source animal id): 178 | ≤ 4
isolate (source animal id): 179 | ≤ 4
isolate (source animal id): 180 | ≤ 4
isolate (source animal id): 181 | 32 (≈ 52.1 µM)
isolate (source animal id): 182 | ≤ 4
isolate (source animal id): 183 | ≤ 4
isolate (source animal id): 184 | ≤ 4
isolate (source animal id): 185 | ≤ 4
isolate (source animal id): 186 | ≤ 4
isolate (source animal id): 187 | 32 (≈ 52.1 µM)
isolate (source animal id): 188 | ≤ 4
